Test results published in the CheMixHub viscosity set.

Assay: xn = mol fraction of the nth substance listed

O=CN1CCOCC1 + Cc1ccccc1
298.15 K, 101.3 kPa
Conditions	viscosity [mPa·s]
x2 = 0.01784	7.177
x2 = 0.06829	6.102
x2 = 0.1881	4.224
x2 = 0.2675	3.336
x2 = 0.3466	2.653
x2 = 0.4247	2.155
x2 = 0.5094	1.701
x2 = 0.5956	1.359
x2 = 0.6849	1.099
x2 = 0.7722	0.879
x2 = 0.8479	0.759
x2 = 0.9178	0.646

CC(O)CN(CC(C)O)CC(C)O (configuration not stated) + O
viscosity [mPa·s], 101 kPa
Conditions	303.15 K	313.15 K	318.15 K
x1 = 0.005	–	–	0.7315
x1 = 0.03	2.395	1.775	–

CCCCCCCCCCCCCCCCCCCc1ccccc1 + CCCCCCCCCCCCCCCCCCC
313.15 K, 101 kPa
Conditions	viscosity [mPa·s]
x2 = 0.1066	7.51
x2 = 0.1924	7.01
x2 = 0.433	5.74
x2 = 0.4887	5.47
x2 = 0.6377	4.83
x2 = 0.7465	4.38
x2 = 0.8251	4.09

CCOC(=O)CCBr + CCCCCC
303.15 K, 101 kPa
Conditions	viscosity [mPa·s]
x1 = 0.2142	0.3919
x1 = 0.4043	0.55
x1 = 0.5019	0.674
x1 = 0.6029	0.8315
x1 = 0.8046	1.263

CC(C)NC(C)C + CCCCO
viscosity [mPa·s], 100 kPa
Conditions	298.15 K	303.15 K	308.15 K
x1 = 0.0499	2.316	2.061	1.793
x1 = 0.1095	2.056	1.834	1.609
x1 = 0.1542	1.88	1.688	1.483
x1 = 0.2062	1.699	1.529	1.353
x1 = 0.25	1.552	1.405	1.251
x1 = 0.2969	1.414	1.285	1.149
x1 = 0.4059	1.129	1.037	0.94
x1 = 0.5062	0.916	0.849	0.777
x1 = 0.6009	0.755	0.707	0.656
x1 = 0.7043	0.62	0.583	0.548
x1 = 0.8059	0.516	0.489	0.467
x1 = 0.8543	0.477	0.451	0.432
x1 = 0.8987	0.444	0.42	0.402
x1 = 0.9489	0.408	0.391	0.374

NCc1ccccc1 + CCC(C)CO
viscosity [mPa·s], 101.33 kPa
Conditions	x1 = 0.1	x1 = 0.2	x1 = 0.3001	x1 = 0.3999	x1 = 0.5	x1 = 0.6	x1 = 0.6998	x1 = 0.7989	x1 = 0.8999
298.15 K	4.232	3.772	3.382	3.039	2.708	2.435	2.181	1.984	1.796
303.15 K	3.472	3.103	2.773	2.478	2.243	2.048	1.849	1.691	1.572
308.15 K	2.453	2.227	2.02	1.837	1.711	1.595	1.5	1.423	1.377

S=C=S + CO
298.15 K, 101.33 kPa
Conditions	viscosity [mPa·s]
x1 = 0.0437	0.5883
x1 = 0.0987	0.5838
x1 = 0.1521	0.5538
x1 = 0.2248	0.5669
x1 = 0.2969	0.57
x1 = 0.9488	0.4088
